These are literature values, as cited in patent publication US5484728A (priority 1994, dated 1996).

Take `CCOP(=S)(OCC)Oc1cc(C)nc(C(C)C)n1` [diazinon]: the “half-life of diazinon in soil without enzyme present” value was 9.4 days.
